Data taken from article PMC7937321 (Genes and Environment, 2021).

Experiments:
TK6 cells = experiment: Cytotoxicity in the TK6 assay (CE, RS, RSG, RTG); details: for RS: graph sheet, TK6, 24 h
[1] = tested on: human lymphoblastoid TK6 cells, thymidine kinase gene; experiment: TK gene mutation assay (TK6 assay, OECD TG490); details: for MF: graph sheet, TK6, 24 h
[2] = TK6, 24 h treatment, -S9 mix, dose 60.00 μg/mL
[3] = TK6, 24 h treatment, -S9 mix, dose 90.00 μg/mL
[4] = TK6, 24 h treatment, -S9 mix, dose 200.0 μg/mL
[5] = TK6, 24 h treatment, -S9 mix, dose 220.0 μg/mL
[6] = short treatment, +S9 mix, Day 0, dose 62.5 μg/mL
[7] = short treatment, +S9 mix, Day 0, dose 250 μg/mL
[8] = short treatment, +S9 mix, Day 0, dose 500 μg/mL
[9] = short treatment, +S9 mix, Day 0, dose 1000 μg/mL
[10] = short treatment, +S9 mix, Day 0, dose 2000 μg/mL
[11] = short treatment, +S9 mix, dose 62.5 μg/mL
[12] = short treatment, +S9 mix, dose 250 μg/mL
[13] = short treatment, +S9 mix, dose 500 μg/mL
[14] = short treatment, +S9 mix, dose 1000 μg/mL
[15] = short treatment, +S9 mix, dose 2000 μg/mL
[16] = short treatment, -S9 mix, Day 0, dose 62.50 μg/mL
[17] = short treatment, -S9 mix, Day 0, dose 500.0 μg/mL
[18] = short treatment, -S9 mix, Day 0, dose 1000.0 μg/mL
[19] = short treatment, -S9 mix, Day 0, dose 2000.0 μg/mL
[20] = short treatment, -S9 mix, dose 62.50 μg/mL
[21] = short treatment, -S9 mix, dose 500.0 μg/mL
[22] = short treatment, -S9 mix, dose 1000.0 μg/mL
[23] = short treatment, -S9 mix, dose 2000.0 μg/mL

With `O=[N+]([O-])c1cc(N(CCO)CCO)ccc1NCCO` [HC blue no2] the “Adjusted CE0” value (TK6 cells; [2]) was 341.6%, the “CE0 (cell viability on Day 0)” value (TK6 cells; [2]) was 112.0% and the “CE3 (cell viability on Day 3)” value (TK6 cells; [2]) was 116.0%. The RS0 (TK6 cells; [2]) was 128.6%, the RSG (TK6 cells; [2]) was 0.865 and the “Adjusted CE0” value (TK6 cells; [3]) was 259.2%. For the same molecule, the “CE0 (cell viability on Day 0)” value (TK6 cells; [3]) was 81.6%, the “CE3 (cell viability on Day 3)” value (TK6 cells; [3]) was 125.0% and the RS0 (TK6 cells; [3]) was 97.6%. The RSG (TK6 cells; [3]) was 0.765, the “Adjusted CE0” value (TK6 cells; [4]) was 96.6% and the “CE0 (cell viability on Day 0)” value (TK6 cells; [4]) was 50.2%. The “CE3 (cell viability on Day 3)” value (TK6 cells; [4]) was 112.0%, the RS0 (TK6 cells; [4]) was 36.4% and the RSG (TK6 cells; [4]) was 0.241. For the same molecule, the “Adjusted CE0” value (TK6 cells; [5]) was 48.2%, the “CE0 (cell viability on Day 0)” value (TK6 cells; [5]) was 28.3% and the “CE3 (cell viability on Day 3)” value (TK6 cells; [5]) was 101.2%. For the same molecule, the RS0 (TK6 cells; [5]) was 18.1%, the RSG (TK6 cells; [5]) was 0.106 and the CE3 (TK6 cells; as fraction, mutation frequency table, TK6, 24 h treatment, -S9 mix, dose 60.00 μg/mL) was 1.160. For the same molecule, the CE3 (TK6 cells; as fraction, mutation frequency table, TK6, 24 h treatment, -S9 mix, dose 90.00 μg/mL) was 1.250, the CE3 (TK6 cells; as fraction, mutation frequency table, TK6, 24 h treatment, -S9 mix, dose 200.0 μg/mL) was 1.120 and the CE3 (TK6 cells; as fraction, mutation frequency table, TK6, 24 h treatment, -S9 mix, dose 220.0 μg/mL) was 1.012. For the same molecule, the RS (TK6 cells; -S9 mix, dose 60.00 μg/mL) was 128.6, the RS (TK6 cells; -S9 mix, dose 90.00 μg/mL) was 97.6 and the RS (TK6 cells; -S9 mix, dose 200.0 μg/mL) was 36.4. The RS (TK6 cells; -S9 mix, dose 220.0 μg/mL) was 18.1, the “Adjusted CE0” value (TK6 cells; [6]) was 91.4% and the CE0 (TK6 cells; [6]) was 81.6%. For the same molecule, the RS0 (TK6 cells; [6]) was 96.7%, the “Adjusted CE0” value (TK6 cells; [7]) was 89.0% and the CE0 (TK6 cells; [7]) was 74.8%. The RS0 (TK6 cells; [7]) was 94.2%, the “Adjusted CE0” value (TK6 cells; [8]) was 80.9% and the CE0 (TK6 cells; [8]) was 79.3%. For the same molecule, the RS0 (TK6 cells; [8]) was 85.5%, the “Adjusted CE0” value (TK6 cells; [9]) was 69.1% and the CE0 (TK6 cells; [9]) was 59.6%. For the same molecule, the RS0 (TK6 cells; [9]) was 73.1%, the “Adjusted CE0” value (TK6 cells; [10]) was 58.5% and the CE0 (TK6 cells; [10]) was 54.7%. It also gave an RS0 (TK6 cells; [10]) of 61.9%, a CE3 (TK6 cells; short treatment, +S9 mix, Day 3, dose 62.5 μg/mL) of 92.1% and a CE3 (TK6 cells; short treatment, +S9 mix, Day 3, dose 250 μg/mL) of 104.6%. It also gave a CE3 (TK6 cells; short treatment, +S9 mix, Day 3, dose 500 μg/mL) of 92.1%, a CE3 (TK6 cells; short treatment, +S9 mix, Day 3, dose 1000 μg/mL) of 108.2% and a CE3 (TK6 cells; short treatment, +S9 mix, Day 3, dose 2000 μg/mL) of 104.6%. For the same molecule, the CE3 (TK6 cells; short treatment, +S9 mix, as fraction, dose 62.5 μg/mL) was 0.921, the CE3 (TK6 cells; short treatment, +S9 mix, as fraction, dose 250 μg/mL) was 1.046 and the CE3 (TK6 cells; short treatment, +S9 mix, as fraction, dose 500 μg/mL) was 0.921. The CE3 (TK6 cells; short treatment, +S9 mix, as fraction, dose 1000 μg/mL) was 1.082, the CE3 (TK6 cells; short treatment, +S9 mix, as fraction, dose 2000 μg/mL) was 1.046 and the RSG (TK6 cells; [11]) was 1.016. It also gave an RSG (TK6 cells; [12]) of 1.004, an RSG (TK6 cells; [13]) of 1.149 and an RSG (TK6 cells; [14]) of 0.770. The RSG (TK6 cells; [15]) was 0.963, the “Adjusted CE0” value (TK6 cells; [16]) was 82.4% and the CE0 (TK6 cells; [16]) was 77.0%. For the same molecule, the RS0 (TK6 cells; [16]) was 94.7%, the “Adjusted CE0” value (TK6 cells; [17]) was 97.6% and the CE0 (TK6 cells; [17]) was 92.1%. For the same molecule, the RS0 (TK6 cells; [17]) was 112.2%, the “Adjusted CE0” value (TK6 cells; [18]) was 99.4% and the CE0 (TK6 cells; [18]) was 92.1%. The RS0 (TK6 cells; [18]) was 114.3%, the “Adjusted CE0” value (TK6 cells; [19]) was 93.9% and the CE0 (TK6 cells; [19]) was 92.1%. It also gave an RS0 (TK6 cells; [19]) of 107.9%, a CE3 (TK6 cells; short treatment, -S9 mix, Day 3, dose 62.50 μg/mL) of 125.0% and a CE3 (TK6 cells; short treatment, -S9 mix, Day 3, dose 500.0 μg/mL) of 95.0%. It also gave a CE3 (TK6 cells; short treatment, -S9 mix, Day 3, dose 1000.0 μg/mL) of 108.2%, a CE3 (TK6 cells; short treatment, -S9 mix, Day 3, dose 2000.0 μg/mL) of 89.3% and a CE3 (TK6 cells; short treatment, -S9 mix, as fraction, dose 62.50 μg/mL) of 1.250. For the same molecule, the CE3 (TK6 cells; short treatment, -S9 mix, as fraction, dose 500.0 μg/mL) was 0.950, the CE3 (TK6 cells; short treatment, -S9 mix, as fraction, dose 1000.0 μg/mL) was 1.082 and the CE3 (TK6 cells; short treatment, -S9 mix, as fraction, dose 2000.0 μg/mL) was 0.893. For the same molecule, the RSG (TK6 cells; [20]) was 0.906, the RSG (TK6 cells; [21]) was 1.168 and the RSG (TK6 cells; [22]) was 0.743. For the same molecule, the RSG (TK6 cells; [23]) was 0.681, the “%SG” value [1, 2] was 47.5% and the “Mut. freq. N-MF” value [1, 2] was 1.5 ×10-6. The “Mut. freq. S-MF” value [1, 2] was 1.4 ×10-6, the “Mut. freq. T-MF” value [1, 2] was 2.9 ×10-6 and the “%SG” value [1, 3] was 74.7%. For the same molecule, the “Mut. freq. N-MF” value [1, 3] was 0.528 ×10-6, the “Mut. freq. S-MF” value [1, 3] was 1.6 ×10-6 and the “Mut. freq. T-MF” value [1, 3] was 2.1 ×10-6. For the same molecule, the “%SG” value [1, 4] was 48.2%, the “Mut. freq. N-MF” value [1, 4] was 3.7 ×10-6 and the “Mut. freq. S-MF” value [1, 4] was 3.4 ×10-6. For the same molecule, the “Mut. freq. T-MF” value [1, 4] was 7.1 ×10-6, the “%SG” value [1, 5] was 52.5% and the “Mut. freq. N-MF” value [1, 5] was 5.1 ×10-6. For the same molecule, the “Mut. freq. S-MF” value [1, 5] was 5.7 ×10-6, the “Mut. freq. T-MF” value [1, 5] was 10.8 ×10-6 and the MF ([1]; -S9 mix, dose 60.00 μg/mL) was 2.9. The MF ([1]; -S9 mix, dose 90.00 μg/mL) was 2.1, the MF ([1]; -S9 mix, dose 200.0 μg/mL) was 7.1 and the MF ([1]; -S9 mix, dose 220.0 μg/mL) was 10.8. The “%SG” value [1, 11] was 50.7%, the “Mut. freq. N-MF” value [1, 11] was 0.7 ×10-6 and the “Mut. freq. S-MF” value [1, 11] was 0.7 ×10-6. For the same molecule, the “Mut. freq. T-MF” value [1, 11] was 1.5 ×10-6, the “%SG” value [1, 12] was 22.9% and the “Mut. freq. N-MF” value [1, 12] was 2.4 ×10-6. The “Mut. freq. S-MF” value [1, 12] was 0.7 ×10-6, the “Mut. freq. T-MF” value [1, 12] was 3.0 ×10-6 and the “%SG” value [1, 13] was 42.4%. The “Mut. freq. N-MF” value [1, 13] was 1.9 ×10-6, the “Mut. freq. S-MF” value [1, 13] was 1.4 ×10-6 and the “Mut. freq. T-MF” value [1, 13] was 3.3 ×10-6. The “%SG” value [1, 14] was 28.4%, the “Mut. freq. N-MF” value [1, 14] was 2.8 ×10-6 and the “Mut. freq. S-MF” value [1, 14] was 1.1 ×10-6. For the same molecule, the “Mut. freq. T-MF” value [1, 14] was 3.9 ×10-6, the “%SG” value [1, 15] was 48.7% and the “Mut. freq. N-MF” value [1, 15] was 1.3 ×10-6. The “Mut. freq. S-MF” value [1, 15] was 1.2 ×10-6, the “Mut. freq. T-MF” value [1, 15] was 2.5 ×10-6 and the “%SG” value [1, 20] was 23.1%. The “Mut. freq. N-MF” value [1, 20] was 1.5 ×10-6, the “Mut. freq. S-MF” value [1, 20] was 0.455 ×10-6 and the “Mut. freq. T-MF” value [1, 20] was 2.0 ×10-6. The “%SG” value [1, 21] was 55.5%, the “Mut. freq. N-MF” value [1, 21] was 1.8 ×10-6 and the “Mut. freq. S-MF” value [1, 21] was 2.3 ×10-6. The “Mut. freq. T-MF” value [1, 21] was 4.1 ×10-6, the “%SG” value [1, 22] was 26.3% and the “Mut. freq. N-MF” value [1, 22] was 2.3 ×10-6. For the same molecule, the “Mut. freq. S-MF” value [1, 22] was 0.8 ×10-6, the “Mut. freq. T-MF” value [1, 22] was 3.1 ×10-6 and the “%SG” value [1, 23] was 51.7%. For the same molecule, the “Mut. freq. N-MF” value [1, 23] was 1.8 ×10-6, the “Mut. freq. S-MF” value [1, 23] was 1.9 ×10-6 and the “Mut. freq. T-MF” value [1, 23] was 3.7 ×10-6.
